This is an account of results in patent publication US20250179103A1, “6-OXODECAHYDROPYRROLO[1,2-A][1,5]DIAZOCINE AND 6-OXODECAHYDRO-4H-PYRROLO[2,1-D][1,5]THIAZOCINE DERIVATIVES AS STAT3 AND STAT6 MODULATORS FOR THE TREATMENT OF CANCER AND INFLAMMATORY CONDITIONS” (Recludix Pharma, Inc., priority 2022, published 2025).

Usually IC50 stands for the concentration needed to halve the response being measured.

Each structure is given as a SMILES string.

The target of experiment [1] is T1, Recombinant STAT6 protein (STAT6(W123-T658)) (Homo sapiens, UniProt P42226).
T1 construct: Recombinant STAT6 protein (STAT6(W123-T658))
T1 sequence (P42226 123-658): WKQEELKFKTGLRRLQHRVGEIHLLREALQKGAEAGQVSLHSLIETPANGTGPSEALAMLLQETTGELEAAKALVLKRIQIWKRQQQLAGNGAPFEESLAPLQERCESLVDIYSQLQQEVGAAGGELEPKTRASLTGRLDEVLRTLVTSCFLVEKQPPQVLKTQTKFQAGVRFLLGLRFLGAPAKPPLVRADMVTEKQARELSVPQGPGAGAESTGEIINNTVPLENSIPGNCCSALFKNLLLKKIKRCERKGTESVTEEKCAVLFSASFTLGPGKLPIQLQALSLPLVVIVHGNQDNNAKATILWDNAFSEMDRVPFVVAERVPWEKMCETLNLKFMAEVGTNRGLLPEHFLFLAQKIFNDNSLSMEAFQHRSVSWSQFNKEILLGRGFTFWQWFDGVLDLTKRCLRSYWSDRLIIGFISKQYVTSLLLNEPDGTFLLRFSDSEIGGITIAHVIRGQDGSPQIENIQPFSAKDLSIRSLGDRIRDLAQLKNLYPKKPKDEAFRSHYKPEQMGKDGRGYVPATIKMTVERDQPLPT
Briefly: STAT6 Fluorescence Polarization (FP) Assay. It is filed as binding. Particulars: STAT6(W123-T658) 250 nM, probe 5-FAM-ApYKPFQDLI-NH2 2 nM, 45-minute incubation. The procedure, abridged:
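Displacement of a fluorescent phosphotyrosine peptide (5-FAM-ApYKPFQDLI-NH2, 2 nM) from STAT6(W123-T658) (250 nM), 1% DMSO, pH 7.4 HEPES buffer. After 45 min at room temperature, polarization (mP) was plotted versus log compound concentration and fitted by nonlinear regression to give IC50.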
Background: In fluorescence polarisation assays a small probe gives low polarisation when free and higher when bound to something large.

Experiment [2] deals with T2, Recombinant STAT3 protein (STAT3(G127-I722)) (Homo sapiens, UniProt P40763).
T2 construct: Recombinant STAT3 protein (STAT3(G127-I722))
T2 sequence (P40763 127-722): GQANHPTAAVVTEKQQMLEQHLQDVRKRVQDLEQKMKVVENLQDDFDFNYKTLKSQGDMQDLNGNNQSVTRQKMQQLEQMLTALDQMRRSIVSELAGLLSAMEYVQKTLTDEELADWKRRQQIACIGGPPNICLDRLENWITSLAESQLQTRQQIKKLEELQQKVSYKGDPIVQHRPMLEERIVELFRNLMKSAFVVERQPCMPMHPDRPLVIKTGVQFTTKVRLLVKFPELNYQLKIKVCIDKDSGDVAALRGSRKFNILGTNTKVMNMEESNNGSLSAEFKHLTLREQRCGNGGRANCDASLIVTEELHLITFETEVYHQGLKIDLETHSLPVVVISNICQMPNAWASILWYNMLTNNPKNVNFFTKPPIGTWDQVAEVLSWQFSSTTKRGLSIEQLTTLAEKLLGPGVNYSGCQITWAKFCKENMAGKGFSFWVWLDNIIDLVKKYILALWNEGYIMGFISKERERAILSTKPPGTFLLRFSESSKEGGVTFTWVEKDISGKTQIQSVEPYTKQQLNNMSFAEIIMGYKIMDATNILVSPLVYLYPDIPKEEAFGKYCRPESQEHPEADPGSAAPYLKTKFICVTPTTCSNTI
Kind of experiment: STAT3 Fluorescence Polarization (FP) Assay. It is filed as binding. To be noted: STAT3(G127-I722) 25 nM, probe 5-FAM-GpYLPQTV-NH2 2 nM, 45-minute incubation. The essentials:
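STAT3(G127-I722), 25 nM, was mixed with 2 nM 5-FAM-GpYLPQTV-NH2 probe in HEPES pH 7.4 buffer with 1% DMSO and serially diluted compound. FP (mP) was read after 45 min at room temperature. IC50 came from nonlinear regression.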

Take `O=C(N[C@H]1CN(S(=O)(=O)CCc2ccccc2)CC[C@H]2CC[C@@H](C(=O)Nc3ccc(-c4ccccc4)cc3)N2C1=O)c1cc2cc(C(F)(F)P(=O)(O)O)ccc2s1` [Compound 268, ((2-(((5S,8S,10aR)-8-([1,1′-biphenyl]-4-ylcarbamoyl)-6-oxo-3-(phenethylsulfonyl)decahydropyrrolo[1,2-a][1,5]diazocin-5-yl)carbamoyl)benzo[b]thiophen-5-yl)difluoromethyl)phosphonic acid]: the results for the IC50 in experiment [1] and in experiment [2] were 0.3 to 3 µM and 1 to 10 µM, respectively.
On the same counts, the results for `CC(=O)N1CC[C@H]2CC[C@@H](C(=O)N(C)c3ccccc3)N2C(=O)[C@@H](NC(=O)c2cc3cc(C(CO)P(=O)(O)O)ccc3s2)C1` (stereo partly drawn) [Compound 19, (1-(2-(((5S,8S,10aR)-3-acetyl-8-(methyl(phenyl)carbamoyl)-6-oxodecahydropyrrolo[1,2-a][1,5]diazocin-5-yl)carbamoyl)benzo[b]thiophen-5-yl)-2-hydroxyethyl)phosphonic acid] are greater than 30 µM and greater than 10 µM.
The corresponding values for `CC(C)(CC(=O)N1CC[C@H]2CC[C@@H](C(=O)N3CC(c4cccnc4)C3)N2C(=O)[C@@H](NC(=O)c2cc3cc(C(F)(F)P(=O)(O)O)ccc3s2)C1)C1CCCCC1` [Compound 269, ((2-(((5S,8S,10aR)-3-(3-cyclohexyl-3-methylbutanoyl)-6-oxo-8-(3-(pyridin-3-yl)azetidine-1-carbonyl)decahydropyrrolo[1,2-a][1,5]diazocin-5-yl)carbamoyl)benzo[b]thiophen-5-yl)difluoromethyl)phosphonic acid] are 0.3 to 3 µM and no more than 0.1 µM.
In the case of `O=C(N[C@H]1CN(CC(F)F)CC[C@H]2CC[C@@H](C(=O)N3CC(C(=O)N4CCOCC4)C3)N2C1=O)c1cc2cc(C(F)(F)P(=O)(O)O)ccc2s1` [Compound 263, ((2-(((5S,8S,10aR)-3-(2,2-difluoroethyl)-8-(3-(morpholine-4-carbonyl)azetidine-1-carbonyl)-6-oxodecahydropyrrolo[1,2-a][1,5]diazocin-5-yl)carbamoyl)benzo[b]thiophen-5-yl)difluoromethyl)phosphonic acid], the results for the IC50 in experiment [1] and in experiment [2] were 3 to 30 µM and no more than 0.1 µM, respectively.
The corresponding values for `N#Cc1cccc(C2CN(C(=O)[C@@H]3CC[C@@H]4CCN(Cc5ncccn5)C[C@H](NC(=O)c5cc6cc(CP(=O)(O)O)ccc6s5)C(=O)N43)C2)n1` [Compound 399, ((2-(((5S,8S,10aR)-8-(3-(6-cyanopyridin-2-yl)azetidine-1-carbonyl)-6-oxo-3-(pyrimidin-2-ylmethyl)decahydro-pyrrolo[1,2-a][1,5]diazocin-5-yl)carbamoyl)benzo[b]thiophen-5-yl)methyl) phosphonic acid] are greater than 30 µM and 0.1 to 1 µM.
On the same counts, the results for `CC(=O)N1CC[C@H]2CC[C@@H](C(=O)N(C)c3ccc(N4CCOCC4)cc3)N2C(=O)[C@@H](NC(=O)c2cc3cc(C(F)(F)P(=O)(O)O)ccc3s2)C1` [Compound 190, ((2-(((5S,8S,10aR)-3-acetyl-8-(methyl(4-morpholinophenyl)carbamoyl)-6-oxodecahydropyrrolo[1,2-a][1,5]diazocin-5-yl)carbamoyl)benzo[b]thiophen-5-yl)difluoromethyl)phosphonic acid] are 0.3 to 3 µM and 1 to 10 µM.
As for `CC(=O)N1CC[C@H]2CC[C@@H](C(=O)N3CCC[C@H]3c3ccccc3)N2C(=O)[C@@H](NC(=O)c2cc3cc(C(F)(F)P(=O)(O)O)ccc3[nH]2)C1` [Compound 162, ((2-(((5S,8S,10aR)-3-acetyl-6-oxo-8-((S)-2-phenylpyrrolidine-1-carbonyl)decahydropyrrolo[1,2-a][1,5]diazocin-5-yl)carbamoyl)-1H-indol-5-yl)difluoromethyl)phosphonic acid], the values for the IC50 in experiment [1] and in experiment [2] were 0.3 to 3 µM and 1 to 10 µM, respectively.
The corresponding values for `C[C@H](Cc1ccccc1)C(=O)N1CC[C@H]2CC[C@@H](C(=O)N3CCCC3)N2C(=O)[C@@H](NC(=O)c2cc3cc(C(F)(F)P(=O)(O)O)ccc3s2)C1` [Compound 259, (difluoro(2-(((5S,8S,10aR)-3-((R)-2-methyl-3-phenylpropanoyl)-6-oxo-8-(pyrrolidine-1-carbonyl)decahydropyrrolo[1,2-a][1,5]diazocin-5-yl)carbamoyl)benzo[b]thiophen-5-yl)methyl)phosphonic acid] are 0.3 to 3 µM and 0.1 to 1 µM.
On the same counts, the results for `O=C(N[C@H]1CCN(C(=O)OCc2ccccc2)C[C@H]2CC[C@@H](C(=O)N3CC(c4cccnc4)C3)N2C1=O)c1cc2cc(C(F)(F)P(=O)(O)O)ccc2s1` [Compound 214, ((2-(((5S,8S,10aR)-2-((benzyloxy)carbonyl)-6-oxo-8-(3-(pyridin-3-yl)azetidine-1-carbonyl)decahydropyrrolo[1,2-a][1,4]diazocin-5-yl)carbamoyl)benzo[b]thiophen-5-yl)difluoromethyl)phosphonic acid] are 3 to 30 µM and no more than 0.1 µM.
On to `CCc1ccc2onc(C(=O)N3CC[C@H]4CC[C@@H](C(=O)N5CCOCC56CC6)N4C(=O)[C@@H](NC(=O)c4ccc5ccc(C(F)P(=O)(O)O)cc5c4)C3)c2c1` (stereo partly drawn) [Compound 374, ((7-(((5S,8S,10aR)-3-(5-ethylbenzo[d]isoxazole-3-carbonyl)-6-oxo-8-(7-oxa-4-azaspiro[2.5]octane-4-carbonyl)decahydropyrrolo[1,2-a][1,5]diazocin-5-yl)carbamoyl)naphthalen-2-yl)fluoromethyl) phosphonic acid], for which the IC50 in experiment [1] is no more than 0.3 µM; in experiment [2], greater than 10 µM.
The corresponding values for `CC(=O)N1CC[C@H]2CC[C@@H](C(=O)N3CCC[C@H]3Cc3cccnc3)N2C(=O)[C@@H](NC(=O)c2cc3cc(C(F)(F)P(=O)(O)O)ccc3s2)C1` [Compound 126, ((2-(((5S,8S,10aR)-3-acetyl-6-oxo-8-((S)-2-(pyridin-3-ylmethyl)pyrrolidine-1-carbonyl)decahydropyrrolo[1,2-a][1,5]diazocin-5-yl)carbamoyl)benzo[b]thiophen-5-yl)difluoromethyl)phosphonic acid] are 0.3 to 3 µM and 1 to 10 µM.
The corresponding values for `CC(=O)N1CC[C@H]2CC[C@@H](C(=O)N3CC(c4cc[nH]c(=O)c4)CC34CC4)N2C(=O)[C@@H](NC(=O)c2ccc3ccc(C(F)(F)P(=O)(O)O)cc3c2)C1` (stereo partly drawn) [Compound 37, ((7-(((5S,8S,10aR)-3-acetyl-6-oxo-8-(6-(2-oxo-1,2-dihydropyridin-4-yl)-4-azaspiro[2.4]heptane-4-carbonyl)decahydropyrrolo[1,2-a][1,5]diazocin-5-yl)carbamoyl)naphthalen-2-yl)difluoromethyl)phosphonic acid] are no more than 0.3 µM and greater than 10 µM.
On the same counts, the results for `CC(=O)N1CC[C@H]2CC[C@@H](C(=O)N(C)c3ccc(C(C)(C)CO)cc3)N2C(=O)[C@@H](NC(=O)c2cc3cc(C(F)(F)P(=O)(O)O)ccc3s2)C1` [Compound 156, ((2-(((5S,8S,10aR)-3-acetyl-8-((4-(1-hydroxy-2-methylpropan-2-yl)phenyl)(methyl)carbamoyl)-6-oxodecahydropyrrolo[1,2-a][1,5]diazocin-5-yl)carbamoyl)benzo[b]thiophen-5-yl)difluoromethyl)phosphonic acid] are 0.3 to 3 µM and 1 to 10 µM.
`CCN1CC[C@H](NC(=O)c2ccc3ccc(C(F)(F)P(=O)(O)O)cc3c2)C(=O)N2[C@H](CC[C@H]2C(=O)N2C[C@H](c3ccccc3)[C@@H](C#N)C2)C1` (relative stereo) [Compound 227, ((7-(((5S,8S,10aR)-8-((rel-trans)-3-cyano-4-phenylpyrrolidine-1-carbonyl)-2-ethyl-6-oxodecahydropyrrolo[1,2-a][1,4]diazocin-5-yl)carbamoyl)naphthalen-2-yl)difluoromethyl)phosphonic acid]: the IC50 in experiment [1] was no more than 0.3 µM; in experiment [2], 1 to 10 µM.
The corresponding values for `CC(=O)N1CC[C@H]2CC[C@@H](C(=O)N(C)c3ccc4nnccc4c3)N2C(=O)[C@@H](NC(=O)c2ccc3ccc(C(F)(F)P(=O)(O)O)nc3c2)C1` [Compound 120, ((7-(((5S,8S,10aR)-3-acetyl-8-(cinnolin-6-yl(methyl)carbamoyl)-6-oxodecahydropyrrolo[1,2-a][1,5]diazocin-5-yl)carbamoyl)quinolin-2-yl)difluoromethyl)phosphonic acid] are 3 to 30 µM and greater than 10 µM.
